{"source": "the supplement of paper PMC10307832", "test_in_all_cases": "relative viability (nuclei count vs DMSO), 5 days (fraction); higher = more cells survive", "key": {"HCC-44": {"tested_on": "HCC-44", "in_short": "(§1)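 Dosing by pin tool came one day after lung cancer cell lines were seeded in 1536-well plates, using either one drug or a fixed anchor-drug dose plus five library-drug doses (not always all listed) in √10 steps. After 5 days, nuclei were counted on 4× images. Relative viability is treated-well nuclei count divided by vehicle-well nuclei count, and values are medians of duplicate plates.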"}, "NCI-H596": {"tested_on": "NCI-H596", "in_short": "as §1"}, "HCC-366": {"tested_on": "HCC-366", "in_short": "as §1"}, "NCI-H647": {"tested_on": "NCI-H647", "in_short": "as §1"}, "NCI-H1944": {"tested_on": "NCI-H1944", "in_short": "as §1"}, "NCI-H322M": {"tested_on": "NCI-H322M", "in_short": "as §1"}, "NCI-H2023": {"tested_on": "NCI-H2023", "in_short": "as §1"}, "201T": {"tested_on": "201T", "in_short": "as §1"}, "NCI-H1734": {"tested_on": "NCI-H1734", "in_short": "as §1"}, "NCI-H2228": {"tested_on": "NCI-H2228", "in_short": "as §1"}, "NCI-H2087": {"tested_on": "NCI-H2087", "in_short": "as §1"}, "PC-3 [JPC-3]": {"tested_on": "PC-3 [JPC-3]", "in_short": "as §1"}, "NCI-H1651": {"tested_on": "NCI-H1651", "in_short": "as §1"}, "SK-LU-1": {"tested_on": "SK-LU-1", "in_short": "as §1"}, "LOU-NH91": {"tested_on": "LOU-NH91", "in_short": "as §1"}, "HCC-78": {"tested_on": "HCC-78", "in_short": "as §1"}, "IA-LM": {"tested_on": "IA-LM", "in_short": "as §1"}, "NCI-H2170": {"tested_on": "NCI-H2170", "in_short": "as §1"}, "LK-2": {"tested_on": "LK-2", "in_short": "as §1"}, "NCI-H2085": {"tested_on": "NCI-H2085", "in_short": "as §1"}, "NCI-H1437": {"tested_on": "NCI-H1437", "in_short": "as §1"}, "EBC-1": {"tested_on": "EBC-1", "in_short": "as §1"}, "ABC-1": {"tested_on": "ABC-1", "in_short": "as §1"}, "PC-14": {"tested_on": "PC-14", "in_short": "as §1"}}}
{"smiles": "Nc1cccc2c1CN(C1CCC(=O)NC1=O)C2=O", "note": "(stereo not given) [Lenalidomide] + C[C@@H](Oc1cc(-c2cnn(C3CCNCC3)c2)cnc1N)c1c(Cl)ccc(F)c1Cl [Crizotinib] (partner 1 µM)", "values": [{"measurement": "relative viability", "setting": "HCC-44; first compound 0.253 µM", "result": 0.823}, {"measurement": "relative viability", "setting": "HCC-44; first compound 0.8 µM", "result": 0.663}, {"measurement": "relative viability", "setting": "HCC-44; first compound 2.53 µM", "result": 0.857}, {"measurement": "relative viability", "setting": "HCC-44; first compound 8 µM", "result": 0.832}, {"measurement": "relative viability", "setting": "NCI-H596; first compound 0.253 µM", "result": 1.1}, {"measurement": "relative viability", "setting": "NCI-H596; first compound 0.8 µM", "result": 0.912}, {"measurement": "relative viability", "setting": "NCI-H596; first compound 2.53 µM", "result": 1.08}, {"measurement": "relative viability", "setting": "NCI-H596; first compound 8 µM", "result": 0.938}, {"measurement": "relative viability", "setting": "HCC-366; first compound 0.253 µM", "result": 0.56}, {"measurement": "relative viability", "setting": "HCC-366; first compound 0.8 µM", "result": 0.499}, {"measurement": "relative viability", "setting": "HCC-366; first compound 2.53 µM", "result": 0.465}, {"measurement": "relative viability", "setting": "HCC-366; first compound 8 µM", "result": 0.499}, {"measurement": "relative viability", "setting": "NCI-H647; first compound 0.253 µM", "result": 1.08}, {"measurement": "relative viability", "setting": "NCI-H647; first compound 0.8 µM", "result": 1.04}, {"measurement": "relative viability", "setting": "NCI-H647; first compound 2.53 µM", "result": 1.22}, {"measurement": "relative viability", "setting": "NCI-H647; first compound 8 µM", "result": 1.14}, {"measurement": "relative viability", "setting": "NCI-H1944; first compound 0.253 µM", "result": 1.1}, {"measurement": "relative viability", "setting": "NCI-H1944; first compound 0.8 µM", "result": 1.1}, {"measurement": "relative viability", "setting": "NCI-H1944; first compound 2.53 µM", "result": 1.15}, {"measurement": "relative viability", "setting": "NCI-H1944; first compound 8 µM", "result": 1}, {"measurement": "relative viability", "setting": "NCI-H322M; first compound 0.253 µM", "result": 0.911}, {"measurement": "relative viability", "setting": "NCI-H322M; first compound 0.8 µM", "result": 0.9}, {"measurement": "relative viability", "setting": "NCI-H322M; first compound 2.53 µM", "result": 0.914}, {"measurement": "relative viability", "setting": "NCI-H322M; first compound 8 µM", "result": 0.996}, {"measurement": "relative viability", "setting": "NCI-H2023; first compound 0.253 µM", "result": 0.661}, {"measurement": "relative viability", "setting": "NCI-H2023; first compound 0.8 µM", "result": 0.785}, {"measurement": "relative viability", "setting": "NCI-H2023; first compound 2.53 µM", "result": 0.675}, {"measurement": "relative viability", "setting": "NCI-H2023; first compound 8 µM", "result": 0.596}, {"measurement": "relative viability", "setting": "201T; first compound 0.253 µM", "result": 1.05}, {"measurement": "relative viability", "setting": "201T; first compound 0.8 µM", "result": 1.02}, {"measurement": "relative viability", "setting": "201T; first compound 2.53 µM", "result": 1.04}, {"measurement": "relative viability", "setting": "201T; first compound 8 µM", "result": 1.05}, {"measurement": "relative viability", "setting": "NCI-H1734; first compound 0.253 µM", "result": 0.622}, {"measurement": "relative viability", "setting": "NCI-H1734; first compound 0.8 µM", "result": 0.654}, {"measurement": "relative viability", "setting": "NCI-H1734; first compound 2.53 µM", "result": 0.618}, {"measurement": "relative viability", "setting": "NCI-H1734; first compound 8 µM", "result": 0.597}, {"measurement": "relative viability", "setting": "NCI-H2228; first compound 0.253 µM", "result": 0.421}, {"measurement": "relative viability", "setting": "NCI-H2228; first compound 0.8 µM", "result": 0.362}, {"measurement": "relative viability", "setting": "NCI-H2228; first compound 2.53 µM", "result": 0.586}, {"measurement": "relative viability", "setting": "NCI-H2228; first compound 8 µM", "result": 0.457}, {"measurement": "relative viability", "setting": "NCI-H2087; first compound 0.253 µM", "result": 0.81}, {"measurement": "relative viability", "setting": "NCI-H2087; first compound 0.8 µM", "result": 0.896}, {"measurement": "relative viability", "setting": "NCI-H2087; first compound 2.53 µM", "result": 0.539}, {"measurement": "relative viability", "setting": "NCI-H2087; first compound 8 µM", "result": 0.928}, {"measurement": "relative viability", "setting": "PC-3 [JPC-3]; first compound 0.253 µM", "result": 0.933}, {"measurement": "relative viability", "setting": "PC-3 [JPC-3]; first compound 0.8 µM", "result": 0.936}, {"measurement": "relative viability", "setting": "PC-3 [JPC-3]; first compound 2.53 µM", "result": 1.02}, {"measurement": "relative viability", "setting": "PC-3 [JPC-3]; first compound 8 µM", "result": 1.09}, {"measurement": "relative viability", "setting": "NCI-H1651; first compound 0.253 µM", "result": 0.875}, {"measurement": "relative viability", "setting": "NCI-H1651; first compound 0.8 µM", "result": 0.884}, {"measurement": "relative viability", "setting": "NCI-H1651; first compound 2.53 µM", "result": 0.865}, {"measurement": "relative viability", "setting": "NCI-H1651; first compound 8 µM", "result": 0.861}, {"measurement": "relative viability", "setting": "SK-LU-1; first compound 0.253 µM", "result": 1.05}, {"measurement": "relative viability", "setting": "SK-LU-1; first compound 0.8 µM", "result": 1.06}, {"measurement": "relative viability", "setting": "SK-LU-1; first compound 2.53 µM", "result": 0.867}, {"measurement": "relative viability", "setting": "SK-LU-1; first compound 8 µM", "result": 0.852}, {"measurement": "relative viability", "setting": "LOU-NH91; first compound 0.253 µM", "result": 0.73}, {"measurement": "relative viability", "setting": "LOU-NH91; first compound 0.8 µM", "result": 0.732}, {"measurement": "relative viability", "setting": "LOU-NH91; first compound 2.53 µM", "result": 0.714}, {"measurement": "relative viability", "setting": "LOU-NH91; first compound 8 µM", "result": 0.704}, {"measurement": "relative viability", "setting": "HCC-78; first compound 0.253 µM", "result": 0.304}, {"measurement": "relative viability", "setting": "HCC-78; first compound 0.8 µM", "result": 0.31}, {"measurement": "relative viability", "setting": "HCC-78; first compound 2.53 µM", "result": 0.351}, {"measurement": "relative viability", "setting": "HCC-78; first compound 8 µM", "result": 0.3}, {"measurement": "relative viability", "setting": "IA-LM; first compound 0.253 µM", "result": 0.833}, {"measurement": "relative viability", "setting": "IA-LM; first compound 0.8 µM", "result": 0.753}, {"measurement": "relative viability", "setting": "IA-LM; first compound 2.53 µM", "result": 0.759}, {"measurement": "relative viability", "setting": "IA-LM; first compound 8 µM", "result": 0.756}, {"measurement": "relative viability", "setting": "NCI-H2170; first compound 0.253 µM", "result": 1.21}, {"measurement": "relative viability", "setting": "NCI-H2170; first compound 0.8 µM", "result": 1.14}, {"measurement": "relative viability", "setting": "NCI-H2170; first compound 2.53 µM", "result": 1.17}, {"measurement": "relative viability", "setting": "NCI-H2170; first compound 8 µM", "result": 1.14}, {"measurement": "relative viability", "setting": "LK-2; first compound 0.253 µM", "result": 0.229}, {"measurement": "relative viability", "setting": "LK-2; first compound 2.53 µM", "result": 0.216}, {"measurement": "relative viability", "setting": "LK-2; first compound 8 µM", "result": 0.256}, {"measurement": "relative viability", "setting": "NCI-H2085; first compound 0.253 µM", "result": 0.866}, {"measurement": "relative viability", "setting": "NCI-H2085; first compound 0.8 µM", "result": 0.742}, {"measurement": "relative viability", "setting": "NCI-H2085; first compound 2.53 µM", "result": 0.97}, {"measurement": "relative viability", "setting": "NCI-H2085; first compound 8 µM", "result": 0.926}, {"measurement": "relative viability", "setting": "NCI-H1437; first compound 0.253 µM", "result": 1.01}, {"measurement": "relative viability", "setting": "NCI-H1437; first compound 0.8 µM", "result": 0.917}, {"measurement": "relative viability", "setting": "NCI-H1437; first compound 2.53 µM", "result": 1.02}, {"measurement": "relative viability", "setting": "NCI-H1437; first compound 8 µM", "result": 0.938}, {"measurement": "relative viability", "setting": "EBC-1; first compound 0.253 µM", "result": 0.195}, {"measurement": "relative viability", "setting": "EBC-1; first compound 0.8 µM", "result": 0.191}, {"measurement": "relative viability", "setting": "EBC-1; first compound 2.53 µM", "result": 0.154}, {"measurement": "relative viability", "setting": "EBC-1; first compound 8 µM", "result": 0.194}, {"measurement": "relative viability", "setting": "ABC-1; first compound 0.253 µM", "result": 1.06}, {"measurement": "relative viability", "setting": "ABC-1; first compound 0.8 µM", "result": 1.25}, {"measurement": "relative viability", "setting": "ABC-1; first compound 2.53 µM", "result": 1.37}, {"measurement": "relative viability", "setting": "ABC-1; first compound 8 µM", "result": 1.43}, {"measurement": "relative viability", "setting": "PC-14; first compound 0.253 µM", "result": 0.904}, {"measurement": "relative viability", "setting": "PC-14; first compound 0.8 µM", "result": 0.857}, {"measurement": "relative viability", "setting": "PC-14; first compound 2.53 µM", "result": 0.905}, {"measurement": "relative viability", "setting": "PC-14; first compound 8 µM", "result": 0.914}]}
